Molecules are shown by their SMILES.

Holding throughout (assay type): cell-based, mouse
For test [1], the system named is NIH3T3 cells overexpressing PKCalpha-KN. The test can be described thus: MTT cell viability, PKCalpha-KN overexpressing cells vs parental line. The settings on record: 3 to 4 days. Here is the method:
(§1) With regard to the function-known genes, the genes shown in the left column of Table 2 were used. With regard to the drugs, those shown in Table 1 were dissolved in DMSO to an extent of 100-fold of the maximum concentration for the search of the drugs and used. With regard to the cells, incubated NIH3T3 or ras-NIH3T3 cells were used.
(§2) Full-length cDNA of each function-known genes was incorporated into an expression vector (pRc-CMV, etc.) and transfected into NIH3T3 cells by a common method. Transformed cells were isolated using the resistance to G-418 as an index and the expression of the transfected gene in each cell was investigated by Western blotting method to select a highly expressing line.
(§3) Cell viabilities were measured according to the following procedures.
(§4) 1) From the 2nd to the 11th rows of a 96-well plate were filled with DMEM (50 μl). The 12th row was filled with 100 μl of DMEM.
(§5) 2) The 1st row was filled with 98 μl of DMEM.
(§6) 3) Drugs (2 μl each) were added into the 1st row.
(§7) 4) Continuous double-dilution was conducted from the 1st to the 9th rows. Fifty μl were taken out from the 9th row and discarded. The plate was preserved in a CO2 incubator.
(§8) 5) Cells (each high-expressing cells and the parental cell line) were detached from the medium using a trypsin solution, suspended in 10% CS-DMEM and transferred to a test tube and cell numbers (cell/ml) were counted.
(§9) 6) The cells were diluted to a concentration of 1×10^5 cells/ml, and 50 μl of the cell suspension were added to the 1st to the 11th rows of the plate followed by gently stirring.
(§10) 7) The plate was transferred to the CO2 incubator and incubated for 3 to 4 days.
(§11) 8) MTT (5 mg/ml in PBS) (10 μl) was added to the 1st to the 12th rows of the plate and incubated in the CO2 incubator at 37° C. for 4 hours.
(§12) 9) A reaction stop solution (0.04N HCl in isopropanol) (150 μl) was added followed by mixing well and being allowed to stand at room temperature for about 2 hours.
(§13) 10) Coloration of formazan which was a metabolite of the MTT dye was measured using a microplate reader. The measurement wavelength was 574 nm and the reference wavelength was 655 nm. The 10th and the 11th rows of the plate were 100% controls and the 12th row was a 0% control.
(§14) As an index for the sensitivity of highly gene-expressing cells and the parental cell line to various drugs, each of the IC40 values thereof was specified and ratios of the IC40 values were calculated. […] After that, logarithmic values of ratios of IC40 values were calculated from each gene.

Test [2] concerns NIH3T3 cells overexpressing caspase-3. The test can be described thus: MTT cell viability, caspase-3 overexpressing cells vs parental line. To be noted: caspase-3 high-expressing cells / parental cell line, 3 to 4 days. Here is the method:
as §1, §2, §3, §4, §5, §6, §7, §8, §9, §10, §11, §12, §13, §14

Test [3] deals with NIH3T3 cells overexpressing HNF3b. The test can be described thus: MTT cell viability, HNF3b overexpressing cells vs parental line. The settings on record: HNF3b high-expressing cells / parental cell line, 3 to 4 days. As to the method:
as §1, §2, §3, §4, §5, §6, §7, §8, §9, §10, §11, §12, §13, §14

For test [4], the system named is NIH3T3 cells overexpressing CaMKIIa. The test is described as follows: MTT cell viability, CaMKIIa overexpressing cells vs parental line. To be noted: CaMKIIa high-expressing cells / parental cell line, 3 to 4 days. Here is the method: as §1, §2, §3, §4, §5, §6, §7, §8, §9, §10, §11, §12, §13, §14
The test system of test [5] is NIH3T3 cells overexpressing HNF4. The test is described as follows: MTT cell viability, HNF4 overexpressing cells vs parental line. To be noted: HNF4 high-expressing cells / parental cell line, 3 to 4 days. Here is the method: as §1, §2, §3, §4, §5, §6, §7, §8, §9, §10, §11, §12, §13, §14
Test [6] deals with NIH3T3 cells overexpressing m-calpain. The test is described as follows: MTT cell viability, m-calpain overexpressing cells vs parental line. To be noted: m-calpain high-expressing cells / parental cell line, 3 to 4 days. As to the method:
as §1, §2, §3, §4, §5, §6, §7, §8, §9, §10, §11, §12, §13, §14

Test [7] relates to NIH3T3 cells overexpressing CBP8. The test is described as follows: MTT cell viability, CBP8 overexpressing cells vs parental line. To be noted: CBP8 high-expressing cells / parental cell line, 3 to 4 days. Here is the method:
as §1, §2, §3, §4, §5, §6, §7, §8, §9, §10, §11, §12, §13
(§15) As an index for the sensitivity of highly gene-expressing cells and the parental cell line to various drugs, each of the IC40 values thereof was specified and ratios of the IC40 values were calculated. FIG. 2 and FIG. 3 are the examples where ratios of IC40 values were calculated from a curve showing the dependency on the concentration of the chemical versus the viability. After that, logarithmic values of ratios of IC40 values were calculated from each gene.

For test [8], the system named is NIH3T3 cells overexpressing PDGF-R. The test is described as follows: MTT cell viability, PDGF-R overexpressing cells vs parental line. To be noted: PDGF-R high-expressing cells / parental cell line, 3 to 4 days. As to the method:
as §1, §2, §3, §4, §5, §6, §7, §8, §9, §10, §11, §12, §13, §15

In test [9] the test system is NIH3T3 cells overexpressing HSP4O. The test can be described thus: MTT cell viability, HSP4O overexpressing cells vs parental line. To be noted: HSP4O high-expressing cells / parental cell line, 3 to 4 days. As to the method:
as §1, §2, §3, §4, §5, §6, §7, §8, §9, §10, §11, §12, §13, §15

For test [10], the system named is NIH3T3 cells overexpressing N-ras. The test can be described thus: MTT cell viability, N-ras overexpressing cells vs parental line. To be noted: N-ras high-expressing cells / parental cell line, 3 to 4 days. As to the method:
as §1, §2, §3, §4, §5, §6, §7, §8, §9, §10, §11, §12, §13, §15

Test [11] has as its system NIH3T3 cells overexpressing Regucalcin. The test is described as follows: MTT cell viability, Regucalcin overexpressing cells vs parental line. The settings on record: Regucalcin high-expressing cells / parental cell line, 3 to 4 days. As to the method: as §1, §2, §3, §4, §5, §6, §7, §8, §9, §10, §11, §12, §13, §15
For test [12], the system named is NIH3T3 cells overexpressing coup. The test can be described thus: MTT cell viability, coup overexpressing cells vs parental line. The settings on record: coup high-expressing cells / parental cell line, 3 to 4 days. As to the method: as §1, §2, §3, §4, §5, §6, §7, §8, §9, §10, §11, §12, §13, §15
Test [13] relates to NIH3T3 cells overexpressing p16/INK4A. The test can be described thus: MTT cell viability, p16/INK4A overexpressing cells vs parental line. The settings on record: p16/INK4A high-expressing cells / parental cell line, 3 to 4 days. Here is the method: as §1, §2, §3, §4, §5, §6, §7, §8, §9, §10, §11, §12, §13, §15
For test [14], the system named is NIH3T3 cells overexpressing cystatin E. The test is described as follows: MTT cell viability, cystatin E overexpressing cells vs parental line. To be noted: cystatin E high-expressing cells / parental cell line, 3 to 4 days. Here is the method: as §1, §2, §3, §4, §5, §6, §7, §8, §9, §10, §11, §12, §13, §15
Test [15] concerns NIH3T3 cells overexpressing Ha-ras. The test is described as follows: MTT cell viability, drug sensitivity of Ha-ras overexpressing cells vs parental line. To be noted: Ha-ras high-expressing cells / parental cell line, 3 to 4 days. Here is the method: as §1, §2, §3, §4, §5, §6, §7, §8, §9, §10, §11, §12, §13, §14
Test [16] concerns NIH3T3 cells overexpressing Ki-ras. The test is described as follows: MTT cell viability, Ki-ras overexpressing cells vs parental line. The settings on record: Ki-ras high-expressing cells / parental cell line, 3 to 4 days. As to the method:
as §1, §2, §3, §4, §5, §6, §7, §8, §9, §10, §11, §12, §13, §15

Test [17] concerns NIH3T3 cells overexpressing HNF1. The test can be described thus: MTT cell viability, HNF1 overexpressing cells vs parental line. The settings on record: HNF1 high-expressing cells / parental cell line, 3 to 4 days. As to the method:
as §1, §2, §3, §4, §5, §6, §7, §8, §9, §10, §11, §12, §13, §14

The subject of test [18] is NIH3T3 cells overexpressing caspase-2. The test is described as follows: MTT cell viability, caspase-2 overexpressing cells vs parental line. To be noted: caspase-2 high-expressing cells / parental cell line, 3 to 4 days. As to the method: as §1, §2, §3, §4, §5, §6, §7, §8, §9, §10, §11, §12, §13, §15
For test [19], the system named is NIH3T3 cells overexpressing p38-DN. The test can be described thus: MTT cell viability, p38-DN overexpressing cells vs parental line. The settings on record: p38-DN high-expressing cells / parental cell line, 3 to 4 days. Here is the method: as §1, §2, §3, §4, §5, §6, §7, §8, §9, §10, §11, §12, §13, §14
Test [20] deals with NIH3T3 cells overexpressing caspase-1. The test can be described thus: MTT cell viability, caspase-1 overexpressing cells vs parental line. The settings on record: caspase-1 high-expressing cells / parental cell line, 3 to 4 days. As to the method:
as §1, §2, §3, §4, §5, §6, §7, §8, §9, §10, §11, §12, §13, §14

[21] abbreviates: PKCalpha-KN (second of two lines) high-expressing cells / parental cell line.

`Nc1nc2nc[nH]c2c(=S)[nH]1` [6-TG, 6-thioguanine]: the “logarithmic value of ratio of IC40 values” turned out to be 0.26 in test [1] (PKCalpha-KN (first of two lines) high-expressing cells / parental cell line); 0.38 in test [1] (setting [21]); 1.16 in test [2]; 0.03 in test [3]; 0.00 in test [4]; 0.00 in [5]. Further, the “logarithmic value of ratio of IC40 values” in [6] is given as 0.29; in test [7], 0.38; in test [8], 0.22; in test [9], 0.50; in test [10] it was −0.22; in test [11], 0.20. The “logarithmic value of ratio of IC40 values” is on record as 0.45 in test [12]; 0.46 in [13]; 0.00 in test [14]; −0.19 in test [15]; −0.30 in test [16]; 0.46 in test [17]. In test [18], the “logarithmic value of ratio of IC40 values” is listed as 0.18.
`O=CN/C=C/c1cc(O)ccc1O` [Erbstatin, erbstatin]: the “logarithmic value of ratio of IC40 values” in test [1] (setting [21]) is 0.00; in test [19] it was 0.06; in test [2] it was −0.10; in test [3] it was −0.03; in test [4], 0.14; in [5] it was 2.00. Besides, the “logarithmic value of ratio of IC40 values” in [6] is recorded as 0.00; in test [7], 0.14; in [9] it was 0.00; in [20] it was −0.22; in [10], −0.22; in test [11] it was 0.00. For the same compound, the “logarithmic value of ratio of IC40 values” is reported as 0.33 in [12]; 0.51 in test [13]; −0.06 in [14]; 0.08 in test [15]; 0.04 in [16]; 0.391 in [17]. Moreover, in test [18], the “logarithmic value of ratio of IC40 values” was −0.07.

The record behind these values is patent US20040086901A1, “Database for analyzing gene function and method of analyzing gene function by dspa” (priority 2000, published 2004).
